The source of these data is patent publication US11814364B2, “Pyridine N-oxide derivatives useful as factor XIa inhibitors” (Janssen Pharmaceutica NV, priority 2021, dated 2023).

One may read the IC50 as the midpoint of a concentration-inhibition curve.

Chain of human plasma kallikrein (P03952 391-638 limits assumed): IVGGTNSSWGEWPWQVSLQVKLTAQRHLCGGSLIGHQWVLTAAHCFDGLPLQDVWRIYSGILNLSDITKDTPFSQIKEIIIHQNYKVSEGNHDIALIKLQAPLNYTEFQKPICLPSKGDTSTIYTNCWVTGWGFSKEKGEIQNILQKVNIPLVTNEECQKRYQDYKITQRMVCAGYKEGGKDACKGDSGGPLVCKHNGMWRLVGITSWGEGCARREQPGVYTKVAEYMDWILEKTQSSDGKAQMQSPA
Chain of human plasma kallikrein (P03952 20-390 partner limits assumed): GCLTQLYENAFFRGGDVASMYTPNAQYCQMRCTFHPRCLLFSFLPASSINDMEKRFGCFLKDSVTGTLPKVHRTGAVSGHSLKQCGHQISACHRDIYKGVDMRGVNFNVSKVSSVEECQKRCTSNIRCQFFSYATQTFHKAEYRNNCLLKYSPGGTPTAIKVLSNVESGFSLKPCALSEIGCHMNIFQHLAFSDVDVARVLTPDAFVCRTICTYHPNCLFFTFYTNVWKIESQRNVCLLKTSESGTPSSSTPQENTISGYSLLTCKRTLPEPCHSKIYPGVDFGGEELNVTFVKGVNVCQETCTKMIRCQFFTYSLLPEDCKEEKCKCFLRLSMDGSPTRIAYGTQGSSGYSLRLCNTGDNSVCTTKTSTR

The assay concerns the target human plasma kallikrein (Homo sapiens, UniProt P03952). Kind of assay: Kallikrein inhibition FLINT assay with quenched AMC peptide substrate Z-Gly-Pro-Arg-AMC (end point EP or kinetic KIN reads). Type of assay: biochemical. The conditions noted are these: kinetic reads at 5 min intervals over 30 min; read-out: Kallikrein (KIN) IC50. The protocol:
A fluorescence intensity (FLINT) based assay was used to monitor inhibition of human plasma kallikrein.
The Kallikrein FLINT assay was used with the following Z-Gly-Pro-Arg-AMC assay buffer: 50 mM Tris, pH 7.5, 100 mM NaCl, 5 mM CaCl2, 0.1 mg/mL BSA, 0.03% CHAPS. Assay buffer was prepared by mixing all ingredients fresh. 2× Z-Gly-Pro-Arg-AMC peptide substrate was prepared by diluting 10 mM stock into 1× assay buffer for a 100 μM working concentration (50 μM final concentration).
Test compound(s) were run in an 11-point, 3-fold serial dilution with a final top compound concentration of 1 μM. Final DMSO in assay was 2%. Plasma kallikrein was pre-incubated for 30-minute with compound and then 50 μM substrate was added to initiate the reaction. The assay was run with either end point (EP) reads at 30 min or kinetic (KIN) reads at 5 min intervals over 30 minutes.
Percent inhibition (IC50) curves were generated per compound tested, and data was analyzed using a 4-parameter logistic fit using GeneData Screener. The relative fluorescence unit (RFU) values were normalized to percent inhibition using the following equation: % inhibition=((HC−LC)−(compound−LC)/(HC−LC))*100
An 11-point dose response curve for the test compound(s) was generated using GENDATA to determine IC50 value based on the following equation: Y=Bottom+(Top−Bottom)/(1+10^((log IC50−X)*HillSlope))
Results listed in columns with […] designation were measured using endpoint reads where a single fluorescence reading was measured for each well at a 30 min timepoint.
Consider `Nc1ccc(-c2cnn(C(CCOC(F)F)c3ccc(-c4c(-n5cnnn5)ccc(Cl)c4F)c[n+]3[O-])c2)c(F)n1` (single isomer, unassigned) [Example P297], for which the IC50 was found to be 2.2 nM. In the case of `[O-][n+]1ccc(-c2cnn(C(CCOC(F)F)c3ccc(-c4c(-n5cnnn5)ccc(Cl)c4F)c[n+]3[O-])c2)c(F)c1` (single isomer, unassigned) [Example P306], the half-inhibitory concentration (IC50) turned out to be 14.8 nM.

On to `Nc1ccc(-c2cnn(C(Cn3cccn3)c3ccc(-c4c(-n5cnnn5)ccc(Cl)c4F)c[n+]3[O-])c2)c(F)n1` (single isomer, unassigned) [Example P314], for which the IC50 stood at 1.4 nM. For `Nc1ccc(-c2cnn(C(Cn3cccn3)c3ccc(-c4c(-n5cnnn5)ccc(Cl)c4F)c[n+]3[O-])c2)c(F)n1` (single isomer, unassigned) [Example P315], the IC50 amounted to 51 nM. As for `COC(=O)Nc1ccc(-c2cnn(C(Cc3ccn(C)n3)c3ccc(-c4c(-n5cnnn5)ccc(Cl)c4F)c[n+]3[O-])c2)cc1` (single isomer, unassigned) [Example P328], the concentration for half-maximal inhibition (IC50) amounted to 0.4 nM.

On to `COC(=O)Nc1ccc(-c2cnn(C(Cc3ccn(C)n3)c3ccc(-c4c(-n5cnnn5)ccc(Cl)c4F)c[n+]3[O-])c2)cc1` (single isomer, unassigned) [Example P329], for which the half-inhibitory concentration (IC50) came out at 49.6 nM. Next, `COC(=O)Nc1ccc(-c2cnn(C(Cc3ccn(C)n3)c3ccc(-c4c(-n5cnnn5)ccc(Cl)c4F)c[n+]3[O-])c2)cc1` (single isomer, unassigned) [Example P330]: 3.3 nM. `[O-][n+]1ccc(-c2cnn(C(Cn3cccn3)c3ccc(-c4c(-n5cnnn5)ccc(Cl)c4F)c[n+]3[O-])c2)cc1C(F)F` (single isomer, unassigned) [Example P334]: the IC50 was 29 nM. With `NC(=O)C1CC1CC(c1ccc(-c2c(-n3cnnn3)ccc(Cl)c2F)c[n+]1[O-])n1cc(-c2ccc(N)nc2F)cn1` (single isomer, unassigned) [Example P337], the 50% inhibitory concentration (IC50) came out at 556 nM. With `NC(=O)C1CC1CC(c1ccc(-c2c(-n3cnnn3)ccc(Cl)c2F)c[n+]1[O-])n1cc(-c2ccc(N)nc2F)cn1` (single isomer, unassigned) [Example P338] the figure was 74.5 nM; with `[O-][n+]1ccc(-c2cnn(C(Cn3cccn3)c3ccc(-c4c(-n5cnnn5)ccc(Cl)c4F)c[n+]3[O-])c2)cc1C(F)F` (single isomer, unassigned) [Example P339], 670 nM. With `NC(=O)C1CC1CC(c1ccc(-c2c(-n3cnnn3)ccc(Cl)c2F)c[n+]1[O-])n1cc(-c2ccc(N)nc2F)cn1` (single isomer, unassigned) [Example P340] the figure was 39.3 nM. Take `NC(=O)C1CC1CC(c1ccc(-c2c(-n3cnnn3)ccc(Cl)c2F)c[n+]1[O-])n1cc(-c2ccc(N)nc2F)cn1` (single isomer, unassigned) [Example P341]: the IC50 stood at 320 nM. Turning to `Cc1nc(N)ccc1-c1cnn(C(CCOC(F)F)c2ccc(-c3c(-n4cnnn4)ccc(Cl)c3F)c[n+]2[O-])c1` (single isomer, unassigned) [Example P343], the 50% inhibitory concentration (IC50) is 767 nM. As to `CN(CC(c1ccc(-c2c(-n3cnnn3)ccc(Cl)c2F)c[n+]1[O-])n1cc(-c2ccnc(F)c2)cn1)C(=O)OC(C)(C)C` (single isomer, unassigned) [Example P354], the half-maximal inhibitory concentration (IC50) came to 38.8 nM. As for `COC(=O)N(C)CC(c1ccc(-c2c(-n3cnnn3)ccc(Cl)c2F)c[n+]1[O-])n1cc(-c2ccnc(F)c2)cn1` (single isomer, unassigned) [Example P355], the IC50 is 933 nM. Next, `COC(=O)N(C)CC(c1ccc(-c2c(-n3cnnn3)ccc(Cl)c2F)c[n+]1[O-])n1cc(-c2ccnc(F)c2)cn1` (single isomer, unassigned) [Example P356]: 30.7 nM. Turning to `O=C1CCCN1CC(c1ccc(-c2c(-n3cnnn3)ccc(Cl)c2F)c[n+]1[O-])n1cc(-c2cc[n+]([O-])c(C(F)F)c2)cn1` (single isomer, unassigned) [Example P362], the IC50 was 38.3 nM. Take `O=C1CCCN1CC(c1ccc(-c2c(-n3cnnn3)ccc(Cl)c2F)c[n+]1[O-])n1cc(-c2ccnc(C(F)(F)F)c2)cn1` (single isomer, unassigned) [Example P364]: the IC50 was 13.5 nM. For the compound `O=c1ccccn1CC(c1ccc(-c2c(-n3cnnn3)ccc(Cl)c2F)c[n+]1[O-])n1cc(-c2cc[n+]([O-])c(C(F)F)c2)cn1` (single isomer, unassigned) [Example P373], the 50% inhibitory concentration (IC50) came out at 161 nM.

As for `CN(CC(c1ccc(-c2c(-n3cnnn3)ccc(Cl)c2F)c[n+]1[O-])n1cc(-c2ccnc(C(F)(F)F)c2)cn1)C(=O)OCc1ccccc1` (single isomer, unassigned) [Example P375], the half-inhibitory concentration (IC50) turned out to be 55.9 nM. With `Cn1ccc(CC(c2ccc(-c3c(-n4cnnn4)ccc(Cl)c3F)c[n+]2[O-])n2cc(-c3ccnc(C(F)(F)F)c3)cn2)n1` (single isomer, unassigned) [Example P378], the IC50 was determined as 140 nM. For `COC(=O)N(C)CC(c1ccc(-c2c(-n3cnnn3)ccc(Cl)c2F)c[n+]1[O-])n1cc(-c2ccnc(C(F)(F)F)c2)cn1` (single isomer, unassigned) [Example P381], the 50% inhibitory concentration (IC50) stood at 36.6 nM. As for `O=C1CCCN1CC(c1ccc(-c2c(-n3cnnn3)ccc(Cl)c2F)c[n+]1[O-])n1cc(-c2ccnc(F)c2)cn1` (single isomer, unassigned) [Example P382], the half-inhibitory concentration (IC50) was found to be 7.3 nM. For `[2H]C([2H])([2H])OCCC(c1ccc(-c2c(-n3cnnn3)ccc(Cl)c2F)c[n+]1[O-])n1cc(-c2ccnc(C(F)(F)F)c2)cn1` (single isomer, unassigned) [Example P386], the 50% inhibitory concentration (IC50) amounted to 39.8 nM. Next, `COC(=O)N(C)CC(c1ccc(-c2c(-n3cnnn3)ccc(Cl)c2F)c[n+]1[O-])n1cc(-c2cc[n+]([O-])c(C(F)F)c2)cn1` (single isomer, unassigned) [Example P392]: 64.1 nM; `CN(CC(c1ccc(-c2c(-n3cnnn3)ccc(Cl)c2F)c[n+]1[O-])n1cc(-c2ccnc(C(F)(F)F)c2)cn1)C(=O)CCC(=O)N1CCCCC1` (single isomer, unassigned) [Example P400]: 93.8 nM. With `[O-][n+]1cc(-c2c(-n3cnnn3)ccc(Cl)c2F)ccc1C(CCOC(F)F)n1cc(-c2ccnc(C(F)(F)F)n2)cn1` (single isomer, unassigned) [Example P401] the figure was 18.6 nM; with `CC(=O)N(C)CC(c1ccc(-c2c(-n3cnnn3)ccc(Cl)c2F)c[n+]1[O-])n1cc(-c2ccnc(C(F)(F)F)c2)cn1` (single isomer, unassigned) [Example P404], 68.4 nM; with `[O-][n+]1ccc(-c2cnn(C(Cn3cc(F)cn3)c3ccc(-c4c(-n5cnnn5)ccc(Cl)c4F)c[n+]3[O-])c2)cc1C(F)F` (single isomer, unassigned) [Example P406], 27.6 nM. With `CN(CC(c1ccc(-c2c(-n3cnnn3)ccc(Cl)c2F)c[n+]1[O-])n1cc(-c2ccnc(C(F)(F)F)c2)cn1)C(=O)c1ccccc1` (single isomer, unassigned) [Example P409], the IC50 was 32.3 nM. As to `O=C(c1cnn(CC(c2ccc(-c3c(-n4cnnn4)ccc(Cl)c3F)c[n+]2[O-])n2cc(-c3ccnc(C(F)(F)F)c3)cn2)c1)N1CCCCC1` (single isomer, unassigned) [Example P411], the half-maximal inhibitory concentration (IC50) is 16 nM. Consider `CC(C)c1cc(-c2cnn(C(Cn3cc(F)cn3)c3ccc(-c4c(-n5cnnn5)ccc(Cl)c4F)c[n+]3[O-])c2)cc[n+]1[O-]` (single isomer, unassigned) [Example P413], for which the concentration for half-maximal inhibition (IC50) is 19.3 nM. In the case of `Nc1ccc(-c2cnn(C(Cn3cc(F)cn3)c3ccc(-c4c(-n5cnnn5)ccc(Cl)c4F)c[n+]3[O-])c2)c(F)n1` (single isomer, unassigned) [Example P416], the IC50 is 3.3 nM. `Nc1ccc(-c2cnn(C(Cn3cc(F)cn3)c3ccc(-c4c(-n5cnnn5)ccc(Cl)c4F)c[n+]3[O-])c2)c(F)n1` (single isomer, unassigned) [Example P417]: the concentration for half-maximal inhibition (IC50) was determined as 77.1 nM. Regarding `CC(C)C(=O)N(C)CC(c1ccc(-c2c(-n3cnnn3)ccc(Cl)c2F)c[n+]1[O-])n1cc(-c2ccnc(C(F)(F)F)c2)cn1` (single isomer, unassigned) [Example P421], the IC50 came to 41.1 nM. With `CN(CC(c1ccc(-c2c(-n3cnnn3)ccc(Cl)c2F)c[n+]1[O-])n1cc(-c2ccnc(C(F)(F)F)c2)cn1)C(=O)c1ccccc1` (single isomer, unassigned) [Example P423] the figure was 43.9 nM; with `CN(CC(c1ccc(-c2c(-n3cnnn3)ccc(Cl)c2F)c[n+]1[O-])n1cc(-c2ccnc(C(F)(F)F)c2)cn1)C(=O)C1CC1` (single isomer, unassigned) [Example P425], 572 nM. Next, `CN(CC(c1ccc(-c2c(-n3cnnn3)ccc(Cl)c2F)c[n+]1[O-])n1cc(-c2ccnc(C(F)(F)F)c2)cn1)C(=O)C1CC1` (single isomer, unassigned) [Example P428]: 64.1 nM; `O=C1OCCN1CC(c1ccc(-c2c(-n3cnnn3)ccc(Cl)c2F)c[n+]1[O-])n1cc(-c2ccnc(C(F)(F)F)c2)cn1` (single isomer, unassigned) [Example P430]: 38 nM.
